Assay results from the COVID Moonshot data (paper PMC7615835).
Values joined by “and” are separate entries in the source; they are usually repeats but may differ in a detail not shown here. Identical values can stand only once.

These compounds were tested against SARS-CoV-2 Main Protease (SARS-CoV-2) (UniProt P0DTD1).

Structure (SMILES) | IC50
CCCOc1cc(Cl)cc2c1OCCC2C(=O)Nc1cncc2ccccc12 (stereo not given) | 5.63 µM
C[C@@H]1NC(=O)c2ccc(Cl)cc2[C@@H]1C(=O)Nc1cncc2ccccc12 (stereo in doubt) | 0.454 µM
C[C@H]1C[C@H](C(=O)Nc2cncc3ccccc23)c2cc(Cl)ccc2O1 (stereo in doubt) | 52.1 µM
O=C(NC1CCCCC1)[C@@H]1CN(C(=O)CCl)CCN1S(=O)(=O)c1ccsc1 (stereo in doubt) | 1.14 µM
CN1Cc2ccc(Cl)cc2C(C(=O)Nc2cncc3ccccc23)C1 (stereo not given) | 2.01 µM
O=C(NCCc1cccc(F)c1)C(c1cccnc1)N(C(=O)c1cnc[nH]1)c1cccc(Oc2cccnn2)c1 (stereo not given) | > 99 µM
O=C1CCCN1Cc1cccc(C(=O)N2CCC(C3CCNC3)CC2)c1 (stereo not given) | > 99.5 µM
N#Cc1cccc(NC(=O)Nc2c[nH]c3ncccc23)c1 | 63.6 µM
N#CC1(CS(=O)(=O)N2Cc3ccc(Cl)cc3C3(CCN(c4cncc5ccc(OCCN6CCOCC6)cc45)C3=O)C2)CC1 (stereo not given) | 0.187 µM
CCOc1ccc(N(C(=O)c2cnc[nH]2)C(C(=O)NCCc2cccc(F)c2)c2cccnc2)cn1 (stereo not given) | > 99 µM
O=C(Cn1cn[nH]c1=O)NC1CCCCCC1c1ccccc1C(F)(F)F (stereo not given) | > 99.5 µM
O=c1[nH]c2ccc(-c3csc(NCc4ccc(F)cc4)n3)cc2o1 | > 99.5 µM
CC(C)NC(=O)CN1CC(C(=O)Nc2cncc3cc(S(C)(=O)=O)ccc23)c2cc(Cl)ccc2C1=O (stereo not given) | 0.332 µM
CCN(Cc1ccc(F)cc1)c1cc(Cl)cc(CC(=O)Nc2cncc3ccccc23)c1 | > 99.5 µM
CS(=O)(=O)Nc1ccc2cncc(NC(=O)C3CNC(=O)c4ccc(Cl)cc43)c2c1 (stereo not given) | 0.195 µM
O=C(NCCc1cccc(F)c1)C(c1cccnc1)N(C(=O)c1cocn1)c1ccc(S(=O)(=O)C2CCCC2)cc1 (stereo not given) | > 99.5 µM
O=C(CCl)N1CCCN(S(=O)(=O)c2cccs2)CC1 | 7.24 µM
O=C(NCCc1cccc(F)c1)C(c1cccnc1)N(C(=O)c1cocn1)C1CCCOC1 (stereo not given) | > 99.5 µM
CN(Cc1nnc2ccccn12)C(=O)c1ccnc2ccccc12 | > 99.5 µM
CC(C)C[C@H]1CN(C(=O)CCl)CCN1Cc1cccc(Cl)c1 (stereo in doubt) | 0.759 µM and 0.641 µM
O=C(Cc1cc(Cl)cc(N2CCN(c3ncccn3)CC2)c1)Nc1cncc2ccccc12 | 2.52 µM
O=C(Cc1cc(Cl)cc(Nc2ccc(F)c(Br)c2)c1)Nc1cncc2ccccc12 | 1.97 µM
O=C(NCCc1cccc(F)c1)C(c1cccnc1)N(C(=O)c1cnc[nH]1)c1cnc(C2CCC2)nc1 (stereo not given) | > 99 µM
CS(=O)(=O)c1ccccc1C(=O)N1CCC(C2CCNC2)CC1 (stereo not given) | > 99.5 µM
Cc1ccccc1NC(=O)CC1SC(=O)N(c2ccccc2)C1=O (stereo not given) | 0.443 µM

Structure (SMILES) | IC50
O=C(Cc1cccc(Cl)c1)Nn1cnc2ccccc21 | 8.3 µM
COc1ccccc1CN(C(=O)c1cocn1)C(C(=O)NCCc1cccc(F)c1)c1cccnc1 (stereo not given) | > 99.5 µM
CC(C)(c1ccc(N(C(=O)c2cocn2)C(C(=O)NCCc2cccc(F)c2)c2cccnc2)cc1)S(C)(=O)=O (stereo not given) | 67.8 µM
COc1ccc2c(c1)CN(C(=O)CCl)C(c1ccccc1)C2 (stereo not given) | 3.74 µM
CNC(=O)CN1CC2(CCN(c3cncc4cc(Cl)ccc34)C2=O)c2cc(Cl)ccc2C1=O (stereo not given) | 0.449 µM
Cc1noc(COc2cc(Cl)cc(CC(=O)Nc3cnccc3C)c2)n1 | 23.9 µM
N#Cc1ccc(CC(=O)Nc2cncc3ccccc23)cc1 | > 99.5 µM
CS(=O)(=O)c1ccc2c(NC(=O)C3CN(CC(=O)NC4CCC4)C(=O)c4ccc(Cl)cc43)cncc2c1 (stereo not given) | 0.252 µM
C=CC(=O)N(Cc1ccccc1Cl)C(C(=O)NC(C)(C)C)c1cccnc1 (stereo not given) | > 99.5 µM
COc1cc(C)ccc1CN(C(=O)c1cocn1)C(C(=O)NCCc1cccc(F)c1)c1cccnc1 (stereo not given) | > 99.5 µM
O=C(Cc1cc(Cl)cc(Nc2ccc(F)c(F)c2Br)c1)Nc1cncc2ccccc12 | 1.94 µM
COC(=O)C(C)(CN(C(=O)c1ccco1)C(C(=O)NCCc1cccc(F)c1)c1cccnc1)c1ccccc1F (stereo not given) | > 99.5 µM
C=CC(=O)N(c1ccc(C(F)(F)F)cc1)C(C(=O)Nc1c(C)cccc1CC)c1cccnc1 (stereo not given) | 97.8 µM
Cc1nn(C)c2[nH]nc(NC(=O)Cc3cccc(Cl)c3)c12 | > 99.5 µM
O=C(Cc1cc(Cl)cc(-c2nnc[nH]2)c1)Nc1cncc2ccccc12 | 5.3 µM
N#Cc1ccc(Nc2cc(Cl)cc(CC(=O)Nc3cncc4ccccc34)c2)cc1Br | 2.16 µM
O=C(Cc1cccc(Cl)c1)Nc1[nH]nc2cccnc12 | > 99.5 µM
O=C(CN1CC(C(=O)Nc2cncc3ccccc23)c2cc(Cl)ccc2C1=O)NCC1CC1 (stereo not given) | 0.0726 µM and 0.122 µM
O=C(Cn1nnc2ccccc21)N(CC1CCOC1)c1ccc(C2CCNCC2)cc1 (stereo not given) | > 99.5 µM
Cc1cc(C)[n+](C)c(C#N)n1 | > 99.5 µM
O=C(Cc1cc(Cl)cc(N2CCC(C(F)(F)F)CC2)c1)Nc1cncc2ccccc12 | 1.43 µM
COc1ccc2cncc(NC(=O)[C@@H]3CCNc4cc(Cl)c(Cl)cc43)c2c1 (stereo in doubt) | 27.2 µM
NC(=O)c1ccncc1NC(=O)Cc1cccc(Cl)c1 | > 99.5 µM
CC(C)(C)c1ccc(N(C(=O)c2ccccc2)C(C(=O)NCCc2cccc(F)c2)c2cccnc2)cc1 (stereo not given) | > 99.5 µM
COc1cc(Nc2cc(Cl)cc(CC(=O)Nc3cncc4ccccc34)c2)c(Cl)cc1Cl | 6.8 µM
